Results: paper PMC9106635, “Stimulation of the atypical chemokine receptor 3 (ACKR3) by a small-molecule agonist attenuates fibrosis in a preclinical liver but not lung injury model” (Cellular and Molecular Life Sciences: CMLS, 2022)

Experiments:
[1] = parameters: method as in PMID 29627981; details: cited from earlier work
[2] = parameters: method as in PMID 29627981; details: mice; cited from earlier work
[3] = test system: CCl4-induced liver fibrosis in C57BL/6J mice; test: CCl4-induced liver fibrosis model; assay type: in vivo, mouse; details: 15 mg/kg/dose SC BID
Experimental: A preclinical mouse model for CCl4-induced liver fibrosis was performed at the Department of Metabolic Health Research, The Netherlands Organisation for Applied Scientific Research (TNO) (Leiden, The Netherlands). Fifty-two male C57BL/6J mice were matched on body weight prior to the study and divided into five groups (experimental study design, Supplementary Figure S1a). Starting at day 0, 10–12-week-old mice were intraperitoneally (i.p.) injected (three times a week) with mineral oil (group 1) or CCl4 (15% v/v in mineral oil, group 2–5) for a total of 28 days. At day 0, mice received subcutaneous treatment with compound 18a (15 mg/kg/dose, twice daily (BID), group 3), or corresponding vehicle control (23% HPBCD, twice daily (BID), groups 1 and 2)], or received daily gavage with either an ALK5/ALK4 kinase inhibitor [SM 16 (45 mg/kg/dose, PO, QD, group 5) or its corresponding vehicle control (β-cyclodextrin sulfobutyl ether sodium salt or captisol, PO, QD, group 4)]. Plasma samples were collected by a tail vein bleed at day 7. At day 28, mice were sacrificed using CO2 and additional plasma samples and liver lobes were collected. As a primary endpoint collagen surface area was determined on cross-sections of the lateral left lobe by picro sirius red (PSR) staining. As a secondary endpoint collagen content (hydroxyproline) of the left median lobe was analyzed using a chromogenic assay according to the manufacturer’s instructions (QuickZyme Biosciences, Leiden, The Netherlands).

[4] = Mouse plasma pharmacokinetics after subcutaneous administration; assay type: in vivo; details: 30 mg/kg subcutaneous
Experimental: Pharmacokinetic analysis of plasma samples was performed at GVK BIO Sciences Pvt. Ltd. (Hyderabad, India). The pharmacokinetic properties of compound 18a were determined by subcutaneous administration in male C57BL/6 mice. A 30 mg/kg dose was formulated as a solution in 23% hydroxypropyl-beta-cyclodextrin (HPBCD; w/v) in water. The dose volume was 3 mL/kg. Serial blood samples were collected at 0.5, 1, 2, 4, 6, 8 and 24 h post dosing (n = 3). Plasma concentration of compound 18a was determined by a LC–MS/MS method. Chromatography was performed on a reverse phase column (Kinetex EVO, C18, 50 × 4.6 mm, 5 µ) at a flow rate of 1 mL/minute, using a gradient-elution method. Mobile Phase A was a 10 mM ammonium acetate solution with 0.1% formic acid in water, whereas mobile phase B was a mixture of acetonitrile and methanol (50:50). The gradient started at 5% B ramped up to 95% B over 1 min, held at 95% B for 1.2 min, and then ramped down to 5% B over 0.1 min, and held at 5% B for 1.2 min. The mass spectrometer was operated in positive-ionization mode and Telmisartan was used as internal standard. Analyst software was used for the data acquisition and chromatographic-peak integration. The Cmax, Tmax, AUC and half-life value (t1/2) were determined using standard non-compartmental pharmacokinetic methods. The concentration of compound 18a in liver and lung tissue was determined by LC–MS/MS at Eurofins (Vergeze, France). Tissues harvested at the endpoint of the efficacy study (day 28 for liver, day 21 for lung), 2 h post the last compound 18a dose, were processed. Around 250 mg of the lateral right liver lobe (n = 3) and ~ 120 mg of the caudal right lung lobe (n = 4) were homogenized in water and precipitated in acetonitrile containing Irbesartan as internal standard. Further analysis was performed via a similar method as described above. Data are expressed as mean ± sem.
Pharmacokinetic parameters were calculated from plasma concentration-time data in male C57BL/6 mice (n=3). Cmax is reported as the mean ± SD.

[5] = test system: isoproterenol-induced cardiac fibrosis in mice; parameters: method as in PMID 29627981; details: isoproterenol-induced cardiac injury; cited from earlier work
hACKR3 = hACKR3 (Homo sapiens, UniProt P25106); test: CXCL12^AF647 competition binding, U87.CD4.ACKR3 cells
Experimental: Binding affinity to human (h)CXCR4 and human (h)ACKR3 was investigated with a competition binding assay using CXCL12^AF647 (Almac, UK) as the tracer molecule. Jurkat cells (human T lymphocytic cell line, hCXCR4 positive) or U87.CD4.ACKR3 cells (human glioblastoma cell line, hACKR3 positive) were resuspended in assay buffer [Hank’s Balanced Salt Solution (HBSS, Thermo Fisher Scientific), 20 mM HEPES buffer, 0.2% bovine serum albumin (Sigma-Aldrich), pH 7.4] at 3 × 10^5 cells per sample and treated with increasing concentrations of compound at RT for 15 min. A fixed amount of CXCL12^AF647 (2.9 nM and 1.45 nM in case of hCXCR4 and hACKR3, respectively) was added and cells were incubated at RT for 30 min protected from light. Cells were finally fixed in 1% paraformaldehyde in DPBS and the CXCL12^AF647 binding signal [i.e., mean fluorescence intensity (MFI)] was quantified by flow cytometry (FACSCanto™; Becton Dickinson). Data were analyzed with FlowJo® Software. For all samples the background MFI (i.e., autofluorescence of untreated and unlabeled cells) was subtracted. The percentage inhibition for each compound concentration was calculated relative to the positive control (i.e., untreated cells exposed to CXCL12^AF647 only). Four parameter non-linear curve fitting (GraphPad Prism 9.0.2) was used to determine the IC50 value for binding inhibition.

[6] = mouse, sc, male C57BL/6 mice, plasma

Chain of hACKR3 (P25106 whole entry): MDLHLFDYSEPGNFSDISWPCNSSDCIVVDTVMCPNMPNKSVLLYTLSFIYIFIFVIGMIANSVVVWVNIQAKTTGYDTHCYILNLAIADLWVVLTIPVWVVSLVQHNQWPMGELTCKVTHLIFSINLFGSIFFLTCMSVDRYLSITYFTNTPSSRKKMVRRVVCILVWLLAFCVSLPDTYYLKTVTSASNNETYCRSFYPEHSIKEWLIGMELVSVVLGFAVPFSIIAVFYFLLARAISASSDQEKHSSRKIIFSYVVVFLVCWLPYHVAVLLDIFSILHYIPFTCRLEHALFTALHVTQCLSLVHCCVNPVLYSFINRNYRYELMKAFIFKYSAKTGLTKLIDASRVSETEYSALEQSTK

- time after administration for which plasma levels exceeded the target value (5.2 ng/mL) ([4]; below target at 24 h): up to 8 h
- AUC [4, 6]: 6700 ng·h/mL
- Tmax [4, 6]: 0.25 h
- half-life [4, 6]: 5.2 h
- Cmax ([4]; mouse, sc, male C57BL/6 mice, plasma, mean ± SD, n=3): 6120 ng/mL
- IC50 (hACKR3; hACKR3, mean ± SD of three independent experiments): 20.5 ± 6.34 nM
- higher hACKR3 binding affinity compared to compound 18b (hACKR3; ratio of IC50 values): five-fold
Structure (SMILES): CCc1ccn2ccnc2c1N1CCCN(C(CC(N)=O)C2CCN(C(=O)C3CC4CCC3O4)CC2)CC1 (stereo not shown) [compound 18a]
- free fraction in mouse plasma [1]: 34%
- oral bioavailability [2]: not orally bioavailable
- liver weight per body weight ([3]; CCl4-treated mice, day 28): not affected by compound 18a treatment
- collagen levels by PSR staining ([3]; day 28, vs CCl4 + 23% HPBCD, P = 0.04): modestly, but significantly, reduced collagen levels
- hydroxyproline levels in liver ([3]; day 28, vs CCl4 + 23% HPBCD, P = 0.06): near significant reduction of hydroxyproline levels
- cardiac fibrosis [5]: protect mice from cardiac fibrosis
